From the supplement of paper PMC10307832

How the values were obtained:
Test in all cases: relative viability (nuclei count vs DMSO), 5 days (fraction); higher = more cells survive
TGX 221 = compound: CC1=CN2C(=O)C=C(N=C2C(=C1)C(C)NC3=CC=CC=C3)N4CCOCC4 [TGX 221]
How it was run: (§1)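 Lung cancer cell lines were seeded into 1536-well plates, kept overnight at 37 °C and pinned with five library-drug doses (not always all listed) spaced by √10. After 5 days, nuclei were Hoechst-stained, imaged at 4× and counted with MetaXpress. Viability is treated-well nuclei over vehicle-well nuclei, taken as a median across plates. Plates needed control CV below 25% and at least one doubling.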

[1] = compound: C1=CC=C(C(=C1)C2=CC=C(C=C2)C3=CSC4=C3C(=C(C(=O)N4)C#N)O)O
How it was run: as §1

Ricolinostat = compound: O=C(CCCCCCNC(=O)c1cnc(N(c2ccccc2)c2ccccc2)nc1)NO [Ricolinostat]
How it was run: as §1

[2] = compound: O=C(CCCCCCNC(=O)c1cnc(N(c2ccccc2)c2ccccc2)nc1)NO [Ricolinostat] + CC(C)C[C@H](NC(=O)[C@H](Cc1ccccc1)NC(=O)c1cnccn1)B(O)O [Bortezomib] (partner 0.002 µM)
How it was run: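 Five library-drug doses in √10 steps were combined with a fixed anchor-drug dose, or a single drug was given alone, by pin tool to lung cancer cell lines in 1536-well plates the day after seeding. Nuclei were stained and counted after 5 days. Relative viability is the nuclei count in treated wells over that in vehicle wells, taken as the median of duplicate plates.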

How did the relative viability (TGX 221; 0.08 µM) turn out when NCI-H1792 was run?
Its relative viability is 0.749.

And the relative viability (TGX 221; 0.253 µM)?
Its relative viability is 0.878.

And the relative viability (TGX 221; 0.8 µM)?
Its relative viability is 1.

And the relative viability (TGX 221; 2.53 µM)?
Its relative viability is 0.883.

And the relative viability (TGX 221; 8 µM)?
The relative viability was 0.864.

What about the relative viability ([1]; 0.253 µM) of the same cell line?
The relative viability was 1.01.

And the relative viability ([1]; 0.8 µM)?
Its relative viability is 0.723.

What about the relative viability ([1]; 2.53 µM) of the same cell line?
The relative viability was 0.921.

What about the relative viability ([1]; 8 µM) of the same cell line?
Its relative viability is 0.446.

And the relative viability (Ricolinostat; 0.08 µM)?
Its relative viability is 0.599.

And the relative viability (Ricolinostat; 0.253 µM)?
The relative viability was 0.938.

And the relative viability (Ricolinostat; 0.8 µM)?
The relative viability was 0.754.

What about the relative viability (Ricolinostat; 2.53 µM) of the same cell line?
Its relative viability is 0.57.

What about the relative viability ([2]; first compound 0.08 µM) of the same cell line?
Its relative viability is 0.899.

What about the relative viability ([2]; first compound 0.253 µM) of the same cell line?
The relative viability was 0.926.

And the relative viability ([2]; first compound 0.8 µM)?
Its relative viability is 0.944.

And the relative viability ([2]; first compound 2.53 µM)?
The relative viability was 0.973.
